Source: US4263316A, “N-(1-Methyl-2-pyrrolidinylmethyl)-2,3-dimethoxy-5-methylsulfamoyl benzamide and its derivatives, methods of preparing them and their application to the treatment of troubles of the lower part of the body” (Societe d'Etudes Scientifiques et Industrielles de l'Ile de …, priority 1978, dated 1981)
Where two headings read alike, the source gives them in different places.

Legend:
[1] = Acute toxicity (lethal dose) in Swiss mice, parenteral and oral; conditions: mouse, in vivo
Procedure: The acute toxicity of the compounds of the invention was determined on Swiss mice parenterally, (intravenously, intraperitoneally, subcutaneously) and orally.
Measurement of the lethal doses of N-(1-methyl-2-pyrrolidinylmethyl)-2,3-dimethoxy-5-methylsulphamoyl benzamide (compound 1) and its levorotatory isomer (compound 2) gave the following results: […]

[2] = system: functional disorders of the lower urinary apparatus of men; test: Double blind study in males versus lipidosterolic complex extracted from pygeum africanum (prostatism); format: in vivo
Procedure: functional disorders of the lower urinary apparatus of men and particularly in the case of prostatism
(§1) 2. To check these impressions, two studies were carried out according to the double blind procedure:
The study was carried out in comparison with the only possible reference product: lipidosterolic complex extracted from pygeum africanum.

[3] = Clinical tolerance and ease of oral treatment in both indications; format: in vivo, men and women
Source text: For both the above indications, the ease of oral treatment was appreciated and the tolerance was excellent.

pelvic spasms = test: Treatment of pelvic spasms on probe after urological gynecological surgery; format: in vivo; conditions: intramuscular or intravenous
rabbit = test: Cystomanometry in the anesthetized rabbit; format: in vivo
Procedure: (§2) A pharmacological study of the compound of the invention which consisted of studying its action on the results of cystomanometry in the rabbit and rat was performed under the following conditions: the animals were anesthesized with pentobarbitol and were given artificial respiration. The left outer jugular vein was catheterized to permit the I.V. injection of the studied product. The bladder was then exteriorized and the two ureters were connected and provided with two catheters, one of which was used to measure the intravesical pressure and the other for the vesical filling.
(§3) The vesical was filled by perfusion of 0.9% salt water at a constant flow rate of 40 ml/min for the rabbit and 5 ml/min for the rat.
(§4) The intravesical pressure before perfusion and the perfused water volume were measured.
(§5) The following parameters were studied: the intravesical pressure before perfusion P1 the intravesical pressure at the time of starting urination P2 […]
(§6) the volume of salt water perfused the quantity discharged during urination the residual quantity only in the bladder.
The cystomanometry study was performed under the following conditions: a first perfusion was carried out after stabilising the preparation for 5 minutes a second perfusion was carried out 15 minutes after the first a third perfusion was carried out 5 minutes after the second.
The study was performed by chronic and acute administration to the rabbit and acute administration to the rat.
The study of the rabbit was performed in the following manner:
10 male rabbits having an average weight of 2500±100 g were used as the control batch for the chronic administration study, 10 male rabbits with an average weight of 2500±100 g were treated every morning for 8 days with N-(1-methyl-2-pyrrolidinylmethyl)-2,3-dimethoxy-5-methylsulphamoyl benzamide intramuscularly injected at a dosage of 10 mg/kg/day. The final injection was carried out 30 minutes before the experiment […]
for the acute administration study 2 batches of 10 male rabbits with an average weight of 2500±100 g were treated with N-(1-methyl-2-pyrrolidinylmethyl)-2,3-dimethoxy-5-methylsulphamoyl benzamide intravenously administered at doses of 5 and 50 mg/kg.
For the controls and for all the treated batches the first perfusion is used as a standard for the following perfusions (each animal serving as its own control).
In the case of the acute administration of N-(1-methyl-2-pyrrolidinylmethyl)-2,3-dimethoxy-5-methylsulphamoyl benzamide to both the rabbit and the rat the product was injected at the end of the first perfusion.
There was a delay of 15 minutes before the two other perfusions (this was also respected for the controls in order to adhere to the same experimental conditions).

[4] = system: cystalgias with clear urine in women; test: Double blind study in females versus placebo (cystalgias with clear urine); format: in vivo
Procedure: cystalgias with clear urine in women.
as §1
Due to the absence of a reference product the activity of the present product was compared with a placebo.

rat = test: Cystomanometry in the anesthetized rat; format: in vivo
Procedure: as §2, §3, §4, §5, §6
The cystomanometry study was performed under the following conditions: a first perfusion was carried out after stabilising the preparation for 5 minutes a second perfusion was carried out 15 minutes after the first a third perfusion was carried out 5 minutes after the second. […]

man = test: Gaseous cystomanometric study in man (cases of serious neurological bladder); format: in vivo
Procedure: A person suffering from multiple sclerosis suffered from incontinence, pollakisuria and the very frequent need to urinate. The intramuscular injection of two 100 mg ampules of the compound of the invention delayed the need to urinate for a volume of 150 cm^3, compared with 80 cm^3 before treatment.
A person having psychogenic urinary disorders with incontinence and pollakisuria received two 100 mg ampules of the compound according to the invention by the intramuscular route. They only needed to urinate for a volume of 400 cm^3, compared with 200 cm^3 before treatment. They were able to voluntarily prevent urination for 2 minutes compared with 15 seconds before treatment.

[5] = intravenous, read-out: LD50 I.V.
[6] = ip, intraperitoneal, read-out: LD50 I.P.
[7] = sc, subcutaneous, read-out: LD50 S.C.

SMILES	LD50 [1, 5]	LD50 [1, 6]	LD50 ([1]; oral, read-out: LD50 P.O.)	LD50 [1, 7]	superiority over lipidosterolic complex extracted from pygeum africanum [2]	tolerance [3]	activity in the treatment of pelvic spasms (pelvic spasms)	urinary threshold (rabbit; anesthetized rabbit)	significance of differences compared with the controls (rabbit; rabbit, acute I.V. 5 and 50 mg/kg)	variations of the same parameters (ΔP, perfusion volume) (rabbit; rabbit, acute I.V. 5 and 50 mg/kg, second and third perfusions, compared with chronic administration)	decrease of the perfusion volume compared with the controls (rabbit; rabbit, intramuscular, 10 mg/kg/day for 8 days)	reduction of ΔP (P2 - P1) compared with control batch (rabbit; rabbit, intramuscular, 10 mg/kg/day for 8 days, as from the first perfusion)	difference of ΔP compared with the controls at the third perfusion (rabbit; rabbit, intramuscular, 10 mg/kg/day for 8 days, third perfusion)	superiority over placebo [4]	same phenomena as in the rabbit (ΔP, perfusion volume) (rat; acute I.V. 50 and 100 mg/kg)	urinary volume (rat; second and third perfusions, particularly at I.V. dosage of 50 mg/kg)	vesical tolerance (man; man, two cases of serious neurological bladder)	volume at which need to urinate occurs (man; person, multiple sclerosis, intramuscular, two 100 mg ampules, 80 cm^3 before treatment)	time of voluntary prevention of urination (man; person, psychogenic urinary disorders, intramuscular, two 100 mg ampules, 15 seconds before treatment)	volume at which need to urinate occurs (man; person, psychogenic urinary disorders, intramuscular, two 100 mg ampules, 200 cm^3 before treatment)
CNS(=O)(=O)c1cc(OC)c(OC)c(C(=O)NCC2CCCN2C)c1 (single isomer, unassigned) [Compound 2, Levorotatory N-(1-methyl-2-pyrrolidinylmethyl)-2,3-dimethoxy-5-methylsulphamoyl benzamide]	90 to 94.6 mg/kg	310 to 336 mg/kg	1080 to 1150 mg/kg	741 to 780 mg/kg	–	–	–	–	–	–	–	–	–	–	–	–	–	–	–	–
CNS(=O)(=O)c1cc(OC)c(OC)c(C(=O)NCC2CCCN2C)c1 (stereo not drawn) [Compound 1, N-(1-methyl-2-pyrrolidinylmethyl)-2,3-dimethoxy-5-methylsulphamoyl benzamide]	130 to 135 mg/kg	315 to 323 mg/kg	992 to 1050 mg/kg	936 to 960 mg/kg	statistically significant	excellent	remarkably active	lowers the urinary threshold	highly significant	Variations in the same direction of the same parameters and in the same proportions	about half	about a third	reduced at the third perfusion	very significant	not observed	significant increase	increase in the vesical tolerance	150 cm^3	2 min	400 cm^3
